Test results reported in patent US20180116993A1, “MODULATORS OF FARNESOID X RECEPTOR AND METHODS FOR THE USE THEREOF” (XIAMEN UNIVERSITY, priority 2015, published 2018).
Read-outs that look alike come from different tables or passages of the source. Marks after values point to notes of the source that are not given here.

Experiments:
[1] = system: human cervical carcinoma Hela cells; assay: MTT cell viability assay, Hela; type: cell-based; conditions: 48 h, read-out: Cell viability as a percentage of the cells treated with DMSO, Hela
From the text: (§1) The MTT assay is a colorimetric assay for assessing cell metabolic activity. It is widely used in high-throughput screening of antitumor drugs due to its high sensitivity and economical features. In this example, MTT was used to detect the inhibitory effects of compounds on various cancer cell lines. Cancer cells including human colorectal adenocarcinoma HCT15 cells, RA-resistant human colon cancer HCT116 cells, human cervical carcinoma Hela cells, human hepatoma HepG2 cells and human breast cancer MCF7 cells were cultured in DMEM medium containing 10% fetal bovine serum. 20 uM or 40 uM of compounds were administered to treat cells, cell viability is detected by MTT assay and expressed as a percentage of the cells treated with DMSO (Table 4).

[2] = target: T1, FXR ligand binding domain (LBD) (Homo sapiens, UniProt Q96RI1); assay: AlphaScreen assay: FXR LBD recruitment of coregulator peptide motifs (SRC2-3, SRC1-2); type: biochemical; conditions: Table 2
T1 construct: made in house
T1 sequence (Q96RI1 262-486 limits assumed): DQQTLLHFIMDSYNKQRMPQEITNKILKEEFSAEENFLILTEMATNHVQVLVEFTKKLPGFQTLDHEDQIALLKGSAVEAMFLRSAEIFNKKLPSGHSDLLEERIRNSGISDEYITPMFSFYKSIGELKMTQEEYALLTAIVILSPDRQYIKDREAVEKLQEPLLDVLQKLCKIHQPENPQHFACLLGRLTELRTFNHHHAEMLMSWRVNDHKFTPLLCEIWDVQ
Experimental: In search of novel ligands for FXR, we used FXR ligand binding domain (LBD) as a bait to screen chemical libraries based on AlphaScreen biochemical assay, which determines the efficacy of small molecules in influencing binding affinity of FXR with coregulator peptides (see e.g., Jin et al., (2013) Nature communications 4, 1937).
The binding of the cofactor peptide motifs to FXR ligand binding domain (LBD) in response to ligands was determined by AlphaScreen assays using a hexahistidine detection kit from Perkins-Elmer. The FXR LBD protein was purified as described previously (see e.g., Jin et al., (2013) Nature communications 4, 1937). The experiments were conducted with approximately 20-40 nM receptor LBD and 20 nM biotinylated cofactor peptides in the presence of 5 μg/ml donor and acceptor beads in a buffer containing 50 mM MOPS, 50 mM NaF, 0.05 mM CHAPS, and 0.1 mg/ml bovine serum albumin, all adjusted to a pH of 7.4.

db/db mice = assay: Hepatic triglyceride, liver histology, serum ALT and ALP in high-fat diet fed db/db mice; type: in vivo, mouse; conditions: 10 mg/kg once daily for 10 days
Experimental: Liver tissues fixed in 4% paraformaldehyde in example 5 were performed for H&E staining by standard procedures. Liver tissues fixed in 4% paraformaldehyde were embedded in optimum cutting temperature compound (OCT), and cryosectioned. Frozen liver sections were stained with 0.3% oil red O according to standard procedures.
The triglyceride levels in liver tissues from mice treated with compounds were analyzed using Tissue triglyceride assay kit (Applygen, Beijing, China).
Alkaline Phosphatase (ALP) is a marker of cholestasis. Cholestasis can be suspected when there is an elevation of ALP enzymes. In fact, greater than 90% of patients with bile stasis will have an elevated alkaline phosphatase. […] The aminotransferase is used to evaluate the presence of hepatitis and may be elevated in cholestasis or with common bile duct obstruction. In this example, 8-10 week age db/db mice were fed with high-fat diet and treated with 10 mg/kg of compounds once daily for 10 days as in Example 5. The activities of serum ALP and ALT were analyzed using ALP kit and ALT kit, respectively (Nanjing Jiancheng Engineering Institute, China).

[3] = system: inflammatory cytokines in tissues of db/db mice; assay: Inflammatory cytokine mRNA levels in tissues of high-fat diet fed db/db mice (RT-PCR); type: in vivo, mouse; conditions: 5 mg/kg
From the text: In this example, we detected the levels of various inflammatory cytokines including iNOS, IFNγ, TGFβ, TNFα, COX2, IL-1β, IL-6, SAA1, MIP-1α and CD36 in liver, kidney, white adipose tissue (WAT) in various mice models, including wild type mice treated with APAP in example 4, high-fat diet fed diabetic and obesity db/db and KK-Ay mice in example 5, high-fat diet fed wild-type mice in Example 5, as well as in primary hepatocytes with LPS induced inflammation, using RT-PCR.

[4] = system: human hepatoma HepG2 cells; assay: MTT cell viability assay, HepG2; type: cell-based; conditions: 48 h, read-out: Cell viability as a percentage of the cells treated with DMSO, HepG2
From the text: as §1

[5] = system: human breast cancer MCF7 cells; assay: MTT cell viability assay, MCF-7; type: cell-based; conditions: 48 h, read-out: Cell viability as a percentage of the cells treated with DMSO, MCF-7
From the text: as §1

[6] = system: human colorectal adenocarcinoma HCT15 cells; assay: MTT cell viability assay, HCT15; type: cell-based; conditions: 48 h, read-out: Cell viability as a percentage of the cells treated with DMSO, HCT15
From the text: as §1

full-length FXR = target: T2, full-length FXR (Homo sapiens, UniProt Q96RI1); assay: Cell-based FXR transactivation, EcRE luciferase reporter in COS-7 cells; conditions: Table 2
T2 construct: The cells were co-transfected with plasmids encoding full-length FXR and the cognate luciferase reporter EcRE-Luc; expressed in transfected cells; host or cells: COS-7
T2 sequence (Q96RI1 1-486): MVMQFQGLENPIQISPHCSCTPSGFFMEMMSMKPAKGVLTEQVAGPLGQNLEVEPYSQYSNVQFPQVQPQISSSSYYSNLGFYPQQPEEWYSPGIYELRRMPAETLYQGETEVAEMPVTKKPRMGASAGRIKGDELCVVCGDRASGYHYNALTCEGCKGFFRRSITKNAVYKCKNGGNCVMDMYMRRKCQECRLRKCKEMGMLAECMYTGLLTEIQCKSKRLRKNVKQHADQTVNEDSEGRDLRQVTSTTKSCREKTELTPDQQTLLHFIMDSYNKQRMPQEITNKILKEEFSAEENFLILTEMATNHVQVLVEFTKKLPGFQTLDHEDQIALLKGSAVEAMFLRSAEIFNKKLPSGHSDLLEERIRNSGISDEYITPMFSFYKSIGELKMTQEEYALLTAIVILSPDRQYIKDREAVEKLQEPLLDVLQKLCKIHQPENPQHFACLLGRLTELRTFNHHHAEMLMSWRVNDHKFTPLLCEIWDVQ
Experimental: COS-7 cells were cotransfected with plasmids encoding full length FXR.
For transient transfection assay, COS-7 cells were maintained in DMEM containing 10% fetal bovine serum and were transiently transfected using Lipofectamine 2000 (Invitrogen). Before 24 h of transfection, 24-well plates were plated. The cells were co-transfected with plasmids encoding full-length FXR and the cognate luciferase reporter EcRE-Luc. Ligands were added 5 hours after transfection. Cells were harvested 24 hours later for the luciferase assays according to the manufacturer's instructions (Dual-Luciferase® Reporter Assay System, Promega). Luciferase activities were normalized to renilla activity co-transfected as an internal control.

[7] = system: RA-resistant human colon cancer HCT116 cells; assay: MTT cell viability assay, HCT116; type: cell-based; conditions: 48 h, read-out: Cell viability as a percentage of the cells treated with DMSO, HCT116
From the text: as §1

COc1cc(C(=O)OC2CCC3CCCCC3C2)ccc1N (stereo not drawn) [XD-32, decahydro-naphthalen-2-yl 4-amino-3-methoxybenzoate]
viability at 20 µM ([1]; 20 uM): 73%
viability at 40 µM ([1]; 40 uM): 30 ± 7%
EC50 ([2]; SRC1-2 peptide, read-out: EC50 (μM) of FXR binding by AlphaScreen assay recruit SRC1-2): < 1 µM
EC50 ([2]; SRC2-3 peptide, read-out: EC50 (μM) of FXR binding by AlphaScreen assay recruit SRC2-3): < 1 µM
Serum ALP (U/L) (db/db mice; vehicle 129 ± 15): 83 ± 23^a U/L
Serum ALT (U/L) (db/db mice; vehicle 377 ± 48, Table 17): 110 ± 42^a U/L
mRNA level of iNOS (fold), Liver tissue ([3]; vehicle 1.06 ± 0.14): 0.22 ± 0.12^a fold
mRNA level of iNOS (fold), Colon tissue ([3]; vehicle 1.12 ± 0.23): 0.45 ± 0.13^a fold
viability at 20 µM ([4]; 20 uM): 100 ± 7%
viability at 40 µM ([4]; 40 uM): 74 ± 7%
viability at 20 µM ([5]; 20 uM): 100 ± 7%
viability at 40 µM ([5]; 40 uM): 95 ± 7%
viability at 20 µM ([6]; HCT-15, 20 uM): 80 ± 7%
viability at 40 µM ([6]; HCT-15, 40 uM): 35 ± 7%
Cell-based FXR transactivation Fold changes by 5 μM compound (full-length FXR; 5 μM compound, positive: induction, minus: repression): −5
EC50 (full-length FXR; EcRE luciferase reporter): < 1 µM
viability at 20 µM ([7]; HCT-116, 20 uM): 65 ± 7%
viability at 40 µM ([7]; HCT-116, 40 uM): 53 ± 7%
